Reference: the METLIN SMRT retention time set (Domingo-Almenara et al. 2019)

Assay: gradient 5% acetonitrile 3 min, to 50% in 2 min, to 85% in 15 min, held 3 min, 100 µL/min
Conditions: column: Zorbax Extend-C18 2.1 x 50 mm; eluents: water / acetonitrile, 0.1% formic acid
Method in brief: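 The mobile phases were water and acetonitrile, each with 0.1% formic acid, pumped at 100 μL/min through a Zorbax Extend-C18 column (2.1 × 50 mm, 1.8 μm). Pure standards were injected as mixtures of ~100 molecules and detected by a quadrupole time-of-flight mass spectrometer in positive and negative ionization mode. Retention time came from computationally picked adduct peaks, each inspected by hand.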

| Structure (SMILES) | RP-LC retention time [s] |
| --- | --- |
| COc1ccc(CN2C=C(C(=O)OCc3cc(=O)n4ccccc4n3)C(C)=NS2(=O)=O)cc1 | 1130 |
| O=C(c1ccc(OC(F)(F)F)cc1)N1CCN(c2cc(-c3ccc(Cl)cc3)[nH]n2)CC1 | 991 |
| CC(C)C(=O)N1CCCc2ccc(NC(=O)c3ccc(F)c(F)c3)cc21 | 871 |
| O=C(c1ccc(OCC2CCCN(C(=O)C3CCCC3)C2)cc1)N1CCCC1 (configuration not stated) | 846 |
| COc1ccc(OCc2nc(CCN(C)C(=O)c3cc(OC)cc(OC)c3)no2)cc1 | 810 |
| Cn1c(-c2ccccc2)nn(CCNC(=O)C2COc3ccccc3O2)c1=O (configuration not stated) | 702 |
| COc1ccc(C(=O)N2CCN(c3cc(C)n4cnnc4n3)CC2)c(OC)c1 | 999 |
| CCC(C)(C(=O)NC1CCCCC1)N(Cc1ccco1)C(=O)c1ccc2c(c1)OCO2 (configuration not stated) | 564 |
| Cc1ccccc1NC(=O)Cn1nc2n(c1=O)CCCC2 | 630 |
| CC(C)Oc1ccc(CN2CC[C@]3(CO)CN(Cc4ccccc4)C[C@@H]3C2)cc1 | 718 |
| COc1ccccc1NC(=O)C1CCCN(S(=O)(=O)c2c[nH]c(C(=O)N3CCCCCC3)c2)C1 (configuration not stated) | 898 |
| Brc1cncc(-c2nc(-c3cccc(-c4ccn[nH]4)c3)no2)c1 | 954 |
| COc1ccc(NC(=O)N2CCc3nc[nH]c3C2)cc1Cl | 580 |
| CSc1ccc(-c2nc3ccc(C)cn3c2NC2CCCCC2)cc1 | 878 |
| Cc1ccc(-c2nc(-c3ccc4oc(C)nc4c3)no2)cc1 | 1180 |
| COc1ccc(OC)c(Nc2c(-c3cccc(O)c3)nc3cnccn23)c1 | 727 |
| O=C1CCC2(O)[C@@H]3Cc4ccc(O)c5c4[C@]2(CCN3Cc2ccoc2)C1O5 (some centres not stated) | 609 |
| Cc1cc(-c2ccc3c(c2)CCN3C(=O)Cc2ccc(F)cc2)on1 | 1000 |
| CC(CCc1ccco1)NC(=O)c1nnn(-c2ccccc2)c1-c1ccccn1 (configuration not stated) | 862 |

| Structure (SMILES) | RP-LC retention time [s] |
| --- | --- |
| Cc1ccc(NC(=O)Cc2c(C(=O)O)c(C)cn2C)nc1 | 642 |
| Cc1noc(C)c1C(=O)N1CC(F)(F)C[C@H]1c1nc(C2CC2)no1 | 806 |
| O=C1CCc2cc(S(=O)(=O)Nc3ccc(F)c(Cl)c3)cc3c2N1CCC3 | 812 |
| CC1CCN(C(=O)c2cc3c(s2)CCC(C(=O)NCc2cccnc2)C3)CC1 (configuration not stated) | 639 |
| Cn1ccc(C(=O)N2CCNC(=O)C2(C)C)n1 | 527 |
| COc1ccc(-c2cc(C(=O)N(C)C)c(C)n2C)cc1 | 808 |
| CCc1ccccc1NC(=O)N1CCC(N2CCN(Cc3ccccc3)C(=O)C2=O)CC1 | 730 |
| CCN1C(=O)CCc2cc(NS(=O)(=O)c3cccc(C)c3)ccc21 | 788 |
| O=C(Nc1ccc(Br)cc1F)N1CCN(Cc2ccc3nccnc3c2)CC1 | 627 |
| Cc1cc(S(=O)(=O)N2CCC3(CC2)NCCCN=C3NC2CCCC2)ccc1F | 768 |
| COC(=O)c1ccc(-c2nc3cnccn3c2Nc2cccc(C)c2C)cc1 | 980 |
| O=C(NCc1ccccn1)c1ccc2c(c1)N(CC(=O)N1CCCC1)C(=O)CO2 | 573 |
| NC(=O)c1ccc(NC(=O)c2sc3ncccc3c2-n2cccc2)cc1 | 728 |
| Cc1ccc(C)c(NC(=O)c2c(O)c3cccnc3n(-c3ccc(F)cc3)c2=O)c1 | 1360 |
| CCOc1ccc(Cc2nc(-c3ccc4c(c3)nc(C)c(=O)n4C)no2)cc1OCC | 970 |
| CN(CC1(C)CCOCC1)S(=O)(=O)c1cn(C)cn1 | 615 |
| Cn1c(=O)c(=O)n(C)c2cc(N3CCCC3)c(NC(=O)C3CC3)cc21 | 614 |
| COc1ccc(Cn2c(=O)c3sccc3n(Cc3nc(-c4ccc(C)c(C)c4)no3)c2=O)cc1 | 1180 |

Results, then the compound that gave them:

| RP-LC retention time [s] | Structure (SMILES) |
| --- | --- |
| 695 | Cc1cc(=O)n(CC(=O)Nc2ccc(F)cc2C)c(N2CCCCC2)n1 |
| 662 | CCn1nccc1C(=O)NCc1cccnc1OC |
| 708 | COc1ccc(NC(=O)NCCCn2c(C(F)(F)F)nc3cccnc32)cc1OC |
| 1270 | CCOc1ccc(NC(=O)c2c(O)c3cccnc3n(-c3ccccc3)c2=O)cc1 |
| 825 | Cc1ccc(Nc2c(-c3nc(C)no3)cnc3nc(C)ccc23)c(C)c1 |
| 920 | Cc1nc(-c2csc(S(=O)(=O)N3CCC(C(=O)Nc4ccc(F)cc4F)CC3)c2)no1 |
| 715 | O=C(NCCN1CCCCCC1)C1CCCN(c2ncc(-c3ccc(F)cc3)cn2)C1 (configuration not stated) |
| 927 | Cc1nc2cc(-c3noc(-c4ccco4)n3)ccc2n(C2CCCC2)c1=O |
| 642 | Cc1ncn(CC(=O)Nc2ccc(F)cc2F)c(=O)c1C |
| 1190 | COc1ccc(-c2nc(COc3cc(C(F)(F)F)c4c(C)nn(C)c4n3)c(C)o2)cc1OC |
| 950 | O=C(Cn1cccc1-c1nnc(-c2ccccc2)o1)NCCc1ccccc1 |
| 796 | CCn1c(CCC(=O)NCc2ccc(C)cc2)nc2ccccc2c1=O |
| 620 | CC1CCCCN1CCNC(=O)Cn1c2ccccc2c2cnn(C)c(=O)c21 (configuration not stated) |
| 648 | Cc1ccc(NC(=O)N2CCN(CCn3c(C(F)(F)F)nc4cccnc43)CC2)cc1 |
| 630 | NC(=O)C1CCN(C(=O)Cc2cc(-c3ccc(F)cc3)on2)CC1 |
| 744 | O=C(NCCCc1ccccc1)C1CCc2nc(N3CCOCC3)ncc2C1 (configuration not stated) |
| 754 | O=C(Nc1cnn(-c2ncc(N3CCCCC3)cn2)c1)NC1CCCC1 |
| 758 | CC(C)CCNC(=O)Cn1ccn2nc(-c3ccccc3)c(CO)c2c1=O |
| 730 | O=C(NC1CC1)c1nnc(-c2ccc(S(=O)(=O)N3CCCC3)cc2)o1 |
| 750 | Cn1cc(C(=O)N2CCCC2Cc2noc(C3CCCC3)n2)cn1 (configuration not stated) |
| 546 | O=C(NC1CC1)C1CCN(C(=O)c2cc(-c3ccncc3)n[nH]2)CC1 |
| 657 | COCCc1nncn1C1CCN(C(=O)c2cc(Cl)ccc2F)CC1 |
| 836 | CCN(C(=O)C1CCCN1S(=O)(=O)c1cc2c(cc1Cl)NC(=O)CO2)c1ccccc1 (configuration not stated) |
| 727 | Cc1nc(C)c(C(=O)N2CCCCCCNC(=O)[C@@H]3CCCC[C@@H]32)s1 |
| 676 | COc1cccc(S(=O)(=O)N2C[C@@H](F)C[C@H]2C(=O)N2CCOCC2)c1 |
| 656 | CCCCN(CCCNC(=O)c1cc(C)nn1-c1ccccc1)Cc1ccccc1 |
| 996 | CCc1ccc(CNC(=O)C2=C3CCCN3c3ccc(F)cc3S2(=O)=O)cc1 |
| 782 | CCOc1cccc(CNC(=O)C2CCCN(c3ncnc4c3oc3ccccc34)C2)c1 (configuration not stated) |
| 779 | Cn1cc(CCNS(=O)(=O)c2ccc(Br)s2)c2cccnc21 |
| 578 | CCn1cc(S(=O)(=O)N2CCC(Cc3nc(-c4ccncc4)n[nH]3)C2)cn1 (configuration not stated) |
